Consider one compound from BindingDB's records for doi:10.1021/acsmedchemlett.0c00432 (Vanderbilt University, 2020).

In the assay the target is Metabotropic glutamate receptor 7 (Rattus norvegicus, UniProt P35400). Description: Positive allosteric modulation of rat mGlu7 receptor expressed in HEK293 cells co-expressing Gai5 assessed as potentiation of L-AP4-induced calcium mobilization preincubated for 140 secs and treated with EC20 L-AP4 for 125 secs and followed by subsequent addition of EC80 L-AP4 by Fluo-4-AM dye based fluorescence assay.
Sequence of Metabotropic glutamate receptor 7 (P35400 whole entry): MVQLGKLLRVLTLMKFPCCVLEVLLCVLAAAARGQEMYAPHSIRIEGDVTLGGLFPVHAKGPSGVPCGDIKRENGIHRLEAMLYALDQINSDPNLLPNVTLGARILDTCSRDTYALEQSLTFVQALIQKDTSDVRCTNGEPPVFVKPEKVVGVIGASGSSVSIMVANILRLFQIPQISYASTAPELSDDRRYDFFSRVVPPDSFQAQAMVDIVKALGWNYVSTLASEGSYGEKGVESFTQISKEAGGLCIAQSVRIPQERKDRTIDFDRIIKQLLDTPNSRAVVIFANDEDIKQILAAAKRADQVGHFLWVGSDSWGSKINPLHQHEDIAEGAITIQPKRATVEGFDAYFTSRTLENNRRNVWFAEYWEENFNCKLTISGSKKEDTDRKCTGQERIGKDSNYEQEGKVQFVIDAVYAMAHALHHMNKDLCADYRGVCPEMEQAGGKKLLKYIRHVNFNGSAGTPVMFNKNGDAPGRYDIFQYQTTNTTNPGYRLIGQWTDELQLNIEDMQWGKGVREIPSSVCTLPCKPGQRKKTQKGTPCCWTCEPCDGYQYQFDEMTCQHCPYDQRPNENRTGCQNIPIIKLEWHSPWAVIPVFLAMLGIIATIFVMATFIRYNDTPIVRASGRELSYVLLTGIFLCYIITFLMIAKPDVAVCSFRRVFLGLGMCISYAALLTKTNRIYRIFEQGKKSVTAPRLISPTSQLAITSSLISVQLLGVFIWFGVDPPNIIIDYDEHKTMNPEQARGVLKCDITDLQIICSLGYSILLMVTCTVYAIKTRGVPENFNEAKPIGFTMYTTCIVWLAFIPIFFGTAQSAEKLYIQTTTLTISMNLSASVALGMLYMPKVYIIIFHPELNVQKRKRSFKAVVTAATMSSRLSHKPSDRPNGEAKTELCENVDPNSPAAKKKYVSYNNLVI

As a reminder, the EC50 is the concentration at which the effect is half-maximal.

Molecules are shown by their SMILES.

Take `N#Cc1cnc2c(OC3CCOC3)cccc2c1N1CCN(c2ccccc2F)CC1` (stereo unspecified): the EC50 turned out to be 1540 nM.
